Experimental data: patent US20160046656A1, “NOVEL PHYTOSPHINGOSINE-1-PHOSPHATE DERIVATIVE, PREPARATION METHOD THEREFOR, AND COMPOSITION FOR PREVENTING AND TREATING HAIR LOSS OR FOR GROWING HAIR COMPRISING SAME” (PHYTOS CO., LTD., priority 2013, published 2016)

Assays:
C3H mice = experiment: Hair growth test using C3H mice; assay type: in vivo, mouse; conditions: for effects on hair growth compared to positive control group: 0.01 weight % solution once a day vs 3% minoxidil preparation (Mynoxyl)
Experimental: A 6-week C3H mouse was purchased, and the hair on a dorsal part of the mouse was partially removed. Then, hair removal cream was applied to the dorsal part to completely remove the existing hair. A mouse of which the hair was not completely removed was excluded from the test. After finishing the hair removal, 5 mice were randomly bred per cage, and a total of 5 cages were used.
The mice were left one day or so after finishing depilation, and a test compound, which was prepared by dissolving O-C-P1P of Example 4 and N-C-P1P of Example 5 in a mixed solution of ethanol and ethoxydiglycol (9:1, v/v) to a concentration of 0.01 weight %, was applied once a day to the area from which the hair was removed. A negative control group was prepared by applying a mixed solution of ethanol and ethoxydiglycol without using the test compound, and a positive control group was 3% minoxidil preparation (Mynoxyl, Hyundai Pharm). After applying samples to the area from which the hair was removed, images of the area captured at the 14th and 18th days are shown in FIG. 3. […]

human fibroblasts = experiment: Cell proliferation by MTT assay; assay type: cell-based; conditions: for Cell Viability (%): MTT, 0 = 100; for cell proliferation, result in words: summary of Table 4
Experimental: (§1) To measure anti-wrinkle effects of N-C-P1P and O-C-P1P, effects of human fibroblasts on cell proliferation were measured via an MTT (3-[4,5-dimethylthiazol-2-yl]-2,5-diphenyltetrazolium bromide) assay. To observe collagen synthesis, procollagent type I, which is produced in human fibroblasts (e.g., dermal cells), were measured.
To measure cell proliferation, human fibroblasts were cultured for 24 hours in a Dulbecco's modified eagle medium (DMEM) medium supplemented with 10% FBS and 100 unit/mL of penicillin/streptomycin. The culture circumstances comprising culturing in a 5% CO2 incubator maintained at a temperature of 37° c. Then, after removing the medium therefrom, N-C-P1P and O-C-P1P were added thereto at different concentrations. The MTT assay was performed to measure effects of N-C-P1P and O-C-P1P on cell proliferation, and the results are summarized in Table 4.

procollagen type I = experiment: Collagen synthesis, procollagen type I C-peptide EIA kit; assay type: cell-based; conditions: human fibroblasts; for Collagen synthesis (%): 24 hours, serum free medium, 0 = 100; for synthesis of collagen, result in words: summary of Table 5
Experimental: as §1
To measure collagen synthesis, the human fibroblasts (e.g., dermal cells) were cultured in the same conditions as above for 24 hours. After removing the medium therefrom, a new serum free medium was substituted. […] The culture medium was used to measure amounts of synthesized collagen by using a procollagen type I C-peptide EIA kit, and the results measured therefrom are shown in Table 5 below.

[1] = 0.01 weight % in ethanol/ethoxydiglycol (9:1, v/v), applied once a day to depilated area, images at 14th and 18th days, FIG. 3

CCCCCCCCCCCCCC[C@@H](O)[C@H]1OP(=O)(O)OC[C@@H]1N [O-C-P1P, O-cyclic phytospingosine-1-phosphate]
effects on hair growth compared to negative control group (C3H mice; 0.005, 0.01 and 0.02 weight % solutions, images at 13th and 17th days, FIG. 5): significant effects on hair growth | difference in effects on hair growth among concentrations (C3H mice; 0.005 weight %, 0.01 weight % and 0.02 weight %, FIG. 5): no significant different | effects on hair growth compared to negative control group (C3H mice; [1]): rapid growth of hair | effects on hair growth compared to positive control group (C3H mice; FIG. 3): effects on faster hair growth were shown better | effects on hair growth compared to negative control group (C3H mice; liposomes containing O-C-P1P of Examples 6 and 7, once a day for 3 weeks, FIG. 4): significant effects on hair growth | concentration giving the same effects on hair growth, times as low as the concentration of minoxidil (C3H mice; vs 3% minoxidil preparation): about 300 times | Cell Viability (%) (human fibroblasts; concentration 0.002%): 128% | Cell Viability (%) (human fibroblasts; concentration 0.004%): 135% | Cell Viability (%) (human fibroblasts; concentration 0.008%): 143% | Cell Viability (%) (human fibroblasts; concentration 0.016%): 160% | cell proliferation, result in words (human fibroblasts): promoting cell proliferation | Collagen synthesis (%) (procollagen type I; concentration 0.1 μM): 120% | Collagen synthesis (%) (procollagen type I; concentration 1 μM): 140% | synthesis of collagen, result in words (procollagen type I): promoting synthesis of collagen

CCCCCCCCCCCCCC[C@@H](O)[C@@H](O)[C@@H]1COP(=O)(O)N1 [N-C-P1P, N-cyclic phytospingosine-1-phosphate]
effects on hair growth compared to negative control group (C3H mice; [1]): significantly better | effects on hair growth compared to positive control group (C3H mice; FIG. 3): quite less | Cell Viability (%) (human fibroblasts; concentration 0.002%): 120% | Cell Viability (%) (human fibroblasts; concentration 0.004%): 110% | Cell Viability (%) (human fibroblasts; concentration 0.008%): 110% | Cell Viability (%) (human fibroblasts; concentration 0.016%): 125% | cell proliferation, result in words (human fibroblasts): promoting cell proliferation | Collagen synthesis (%) (procollagen type I; concentration 0.1 μM): 110% | Collagen synthesis (%) (procollagen type I; concentration 1 μM): 125% | synthesis of collagen, result in words (procollagen type I): promoting synthesis of collagen
